# Experimental data from ChEMBL document CHEMBL5724914, “Linking interpersonal differences in gut microbiota composition and drug biotransformation activity” (2024).
# Test: (§1) The drug is tested on Z-013 corresponding to rabbit gut metagenome with ENA study accession number: PRJEB37062 and ENA sample accession number: ERS12561813 for biotransformation under anaerobic condition. The drug concentrations were measured over 9 timepoints collected between 0 and 24 hours of incubation by liquid-chromatography-coupled mass spectrometry (LC–MS)
# Settings: 2 µM
# Also: call rule not given here.
row,Bacterial Biotransformation,SMILES
1,Compound NOT metabolized,Nc1nc(N)nc(-c2cc(Cl)ccc2Cl)n1.O=C(O)/C=C\C(=O)O [IRSOGLADINE MALEATE]
2,Compound NOT metabolized,CN1CCC(=C2c3ccccc3CC(=O)c3sccc32)CC1.O=C(O)/C=C/C(=O)O [KETOTIFEN FUMARATE]

# Test: as §1, with “Z-009” for “Z-013”, “pig” for “rabbit”, “ERS12561809” for “ERS12561813”
# Settings: 2 µM
row,Bacterial Biotransformation,SMILES
1,Compound NOT metabolized,Nc1nc(N)nc(-c2cc(Cl)ccc2Cl)n1.O=C(O)/C=C\C(=O)O [IRSOGLADINE MALEATE]
2,Compound metabolized,CN1CCC(=C2c3ccccc3CC(=O)c3sccc32)CC1.O=C(O)/C=C/C(=O)O [KETOTIFEN FUMARATE]

# Test: as §1, with “Z-008” for “Z-013”, “to” for “to rabbit gut”, “ERS12561808” for “ERS12561813”
# Settings: 2 µM
row,Bacterial Biotransformation,SMILES
1,Compound NOT metabolized,Nc1nc(N)nc(-c2cc(Cl)ccc2Cl)n1.O=C(O)/C=C\C(=O)O [IRSOGLADINE MALEATE]
2,Compound NOT metabolized,CN1CCC(=C2c3ccccc3CC(=O)c3sccc32)CC1.O=C(O)/C=C/C(=O)O [KETOTIFEN FUMARATE]

# Settings: human gut metagenome, 24 h, 2 µM
row,Bacterial Biotransformation,SMILES
1,Compound NOT metabolized,Nc1nc(N)nc(-c2cc(Cl)ccc2Cl)n1.O=C(O)/C=C\C(=O)O [IRSOGLADINE MALEATE]
2,Compound metabolized,CN1CCC(=C2c3ccccc3CC(=O)c3sccc32)CC1.O=C(O)/C=C/C(=O)O [KETOTIFEN FUMARATE]

# Settings: human gut metagenome, 24 h, 2 µM
# Remark: another data set of the same source
row,Bacterial Biotransformation,SMILES
1,Compound NOT metabolized,Nc1nc(N)nc(-c2cc(Cl)ccc2Cl)n1.O=C(O)/C=C\C(=O)O [IRSOGLADINE MALEATE]
2,Compound metabolized,CN1CCC(=C2c3ccccc3CC(=O)c3sccc32)CC1.O=C(O)/C=C/C(=O)O [KETOTIFEN FUMARATE]

# Settings: human gut metagenome, 24 h, 2 µM
# Remark: another data set of the same source
row,Bacterial Biotransformation,SMILES
1,Compound NOT metabolized,Nc1nc(N)nc(-c2cc(Cl)ccc2Cl)n1.O=C(O)/C=C\C(=O)O [IRSOGLADINE MALEATE]
2,Compound NOT metabolized,CN1CCC(=C2c3ccccc3CC(=O)c3sccc32)CC1.O=C(O)/C=C/C(=O)O [KETOTIFEN FUMARATE]

# Test: as §1, with “WLS-073” for “Z-013”, “human” for “rabbit”, “ERS12561749” for “ERS12561813”
# Settings: 2 µM
row,Bacterial Biotransformation,SMILES
1,Compound NOT metabolized,Nc1nc(N)nc(-c2cc(Cl)ccc2Cl)n1.O=C(O)/C=C\C(=O)O [IRSOGLADINE MALEATE]
2,Compound metabolized,CN1CCC(=C2c3ccccc3CC(=O)c3sccc32)CC1.O=C(O)/C=C/C(=O)O [KETOTIFEN FUMARATE]

# Test: as §1, with “Z-026” for “Z-013”, “to” for “to rabbit gut”, “ERS12561825” for “ERS12561813”
# Settings: 2 µM
row,Bacterial Biotransformation,SMILES
1,Compound NOT metabolized,Nc1nc(N)nc(-c2cc(Cl)ccc2Cl)n1.O=C(O)/C=C\C(=O)O [IRSOGLADINE MALEATE]
2,Compound NOT metabolized,CN1CCC(=C2c3ccccc3CC(=O)c3sccc32)CC1.O=C(O)/C=C/C(=O)O [KETOTIFEN FUMARATE]

# Settings: human gut metagenome, 24 h, 2 µM
# Remark: another data set of the same source
row,Bacterial Biotransformation,SMILES
1,Compound NOT metabolized,Nc1nc(N)nc(-c2cc(Cl)ccc2Cl)n1.O=C(O)/C=C\C(=O)O [IRSOGLADINE MALEATE]
2,Compound NOT metabolized,CN1CCC(=C2c3ccccc3CC(=O)c3sccc32)CC1.O=C(O)/C=C/C(=O)O [KETOTIFEN FUMARATE]

# Test: as §1, with “WLS-090” for “Z-013”, “human” for “rabbit”, “ERS12561753” for “ERS12561813”
# Settings: 2 µM
row,Bacterial Biotransformation,SMILES
1,Compound NOT metabolized,Nc1nc(N)nc(-c2cc(Cl)ccc2Cl)n1.O=C(O)/C=C\C(=O)O [IRSOGLADINE MALEATE]
2,Compound metabolized,CN1CCC(=C2c3ccccc3CC(=O)c3sccc32)CC1.O=C(O)/C=C/C(=O)O [KETOTIFEN FUMARATE]

# Settings: human gut metagenome, 24 h, 2 µM
# Remark: another data set of the same source
row,Bacterial Biotransformation,SMILES
1,Compound NOT metabolized,Nc1nc(N)nc(-c2cc(Cl)ccc2Cl)n1.O=C(O)/C=C\C(=O)O [IRSOGLADINE MALEATE]
2,Compound NOT metabolized,CN1CCC(=C2c3ccccc3CC(=O)c3sccc32)CC1.O=C(O)/C=C/C(=O)O [KETOTIFEN FUMARATE]

# Settings: human gut metagenome, 24 h, 2 µM
# Remark: another data set of the same source
row,Bacterial Biotransformation,SMILES
1,Compound NOT metabolized,Nc1nc(N)nc(-c2cc(Cl)ccc2Cl)n1.O=C(O)/C=C\C(=O)O [IRSOGLADINE MALEATE]
2,Compound metabolized,CN1CCC(=C2c3ccccc3CC(=O)c3sccc32)CC1.O=C(O)/C=C/C(=O)O [KETOTIFEN FUMARATE]

# Test: as §1, with “Z-023” for “Z-013”, “to” for “to rabbit gut”, “ERS12561822” for “ERS12561813”
# Settings: 2 µM
row,Bacterial Biotransformation,SMILES
1,Compound NOT metabolized,Nc1nc(N)nc(-c2cc(Cl)ccc2Cl)n1.O=C(O)/C=C\C(=O)O [IRSOGLADINE MALEATE]
2,Compound NOT metabolized,CN1CCC(=C2c3ccccc3CC(=O)c3sccc32)CC1.O=C(O)/C=C/C(=O)O [KETOTIFEN FUMARATE]

# Test: as §1, with “Z-021” for “Z-013”, “to” for “to rabbit gut”, “ERS12561820” for “ERS12561813”
# Settings: 2 µM
row,Bacterial Biotransformation,SMILES
1,Compound NOT metabolized,Nc1nc(N)nc(-c2cc(Cl)ccc2Cl)n1.O=C(O)/C=C\C(=O)O [IRSOGLADINE MALEATE]
2,Compound NOT metabolized,CN1CCC(=C2c3ccccc3CC(=O)c3sccc32)CC1.O=C(O)/C=C/C(=O)O [KETOTIFEN FUMARATE]

# Test: as §1, with “Z-016” for “Z-013”, “mouse” for “rabbit”, “ERS12561815” for “ERS12561813”
# Settings: 2 µM
row,Bacterial Biotransformation,SMILES
1,Compound NOT metabolized,Nc1nc(N)nc(-c2cc(Cl)ccc2Cl)n1.O=C(O)/C=C\C(=O)O [IRSOGLADINE MALEATE]
2,Compound NOT metabolized,CN1CCC(=C2c3ccccc3CC(=O)c3sccc32)CC1.O=C(O)/C=C/C(=O)O [KETOTIFEN FUMARATE]

# Settings: human gut metagenome, 24 h, 2 µM
# Remark: another data set of the same source
row,Bacterial Biotransformation,SMILES
1,Compound NOT metabolized,Nc1nc(N)nc(-c2cc(Cl)ccc2Cl)n1.O=C(O)/C=C\C(=O)O [IRSOGLADINE MALEATE]
2,Compound NOT metabolized,CN1CCC(=C2c3ccccc3CC(=O)c3sccc32)CC1.O=C(O)/C=C/C(=O)O [KETOTIFEN FUMARATE]

# Test: as §1, with “Z-024” for “Z-013”, “pig” for “rabbit”, “ERS12561823” for “ERS12561813”
# Settings: 2 µM
row,Bacterial Biotransformation,SMILES
1,Compound NOT metabolized,Nc1nc(N)nc(-c2cc(Cl)ccc2Cl)n1.O=C(O)/C=C\C(=O)O [IRSOGLADINE MALEATE]
2,Compound NOT metabolized,CN1CCC(=C2c3ccccc3CC(=O)c3sccc32)CC1.O=C(O)/C=C/C(=O)O [KETOTIFEN FUMARATE]

# Settings: human gut metagenome, 24 h, 2 µM
# Remark: another data set of the same source
row,Bacterial Biotransformation,SMILES
1,Compound NOT metabolized,Nc1nc(N)nc(-c2cc(Cl)ccc2Cl)n1.O=C(O)/C=C\C(=O)O [IRSOGLADINE MALEATE]
2,Compound metabolized,CN1CCC(=C2c3ccccc3CC(=O)c3sccc32)CC1.O=C(O)/C=C/C(=O)O [KETOTIFEN FUMARATE]

# Settings: human gut metagenome, 24 h, 2 µM
# Remark: another data set of the same source
row,Bacterial Biotransformation,SMILES
1,Compound NOT metabolized,Nc1nc(N)nc(-c2cc(Cl)ccc2Cl)n1.O=C(O)/C=C\C(=O)O [IRSOGLADINE MALEATE]
2,Compound metabolized,CN1CCC(=C2c3ccccc3CC(=O)c3sccc32)CC1.O=C(O)/C=C/C(=O)O [KETOTIFEN FUMARATE]

# Test: as §1, with “Z-003” for “Z-013”, “pig” for “rabbit”, “ERS12561803” for “ERS12561813”
# Settings: 2 µM
row,Bacterial Biotransformation,SMILES
1,Compound NOT metabolized,Nc1nc(N)nc(-c2cc(Cl)ccc2Cl)n1.O=C(O)/C=C\C(=O)O [IRSOGLADINE MALEATE]
2,Compound NOT metabolized,CN1CCC(=C2c3ccccc3CC(=O)c3sccc32)CC1.O=C(O)/C=C/C(=O)O [KETOTIFEN FUMARATE]
